Laboratory results as given in EPA's ToxValDB 9.5.

System: Rattus norvegicus
Conditions: oral
[1] = short-term, duration: 28 days, gavage, M, Sprague-Dawley, Clinical Observation: Diarrhea + Body Weight Changes: decrease + Food Consumption: decrease + Urinalysis: Color, Brown + Hematology: RET …

In the case of O=C(O)c1cccnc1Cl [3-Carboxy-2-chloropyridine], the NOEL (short-term, duration: 28 days, gavage, M/F, Clinical Observation: Alopecia Salivation + Blood Chemistry: GOT increase, GPT increase, ALP increase, BUN increase + Necropsy: Liver - …) is reported as 10 mg/kg-day.
Nc1cccc(Cl)c1 [3-Chloroaniline] showed an NOEL (subchronic, gavage, M/F, Fischer 344, Deaths + Clinical Observation: Bluish discoloration of the genital and footpad regions + Body Weight Changes: decrease + Hematology: Hct …) of under 10 mg/kg-day.
For Cl.Cl.Nc1ccc(Cc2ccc(N)cc2)cc1 [4,4'-Methylenedianiline dihydrochloride], the NOEL (subchronic, duration: 13 weeks, water, M/F, Fischer 344, Body Weight Changes: decrease + Histopathology: Liver/bile duct- Hyperplasia Thyroid-Adenomatous goiter Thyroid-Follicullar-cell hyperplasia…) was 30.4 mg/kg-day.
Nc1ccc(Cl)cc1[N+](=O)[O-] [4-Chloro-2-nitroaniline] showed an NOEL (subchronic, gavage, M, Sprague-Dawley, Hematology: Hct decrease, Ret increase + Relative Organ Weight: Heat increase, Liver increase, Kidneys increase, Adrenals increase + …) of 10 mg/kg-day.
COc1ccc(N)c([N+](=O)[O-])c1 [4-Methoxy-2-nitroaniline] showed an NOEL (subchronic, gavage, M, Sprague-Dawley, Clinical Observation: Orangish urine Soiled fur Salivation + Body Weight Changes: decrease(trend) + Food Consumption: decrease + Absolute …) of under 12.5 mg/kg-day.
Cc1ccc(O)c([N+](=O)[O-])c1 [4-Methyl-2-nitrophenol] gave an NOAEL (short-term, duration: 28 days, gavage, F, Sprague-Dawley, Clinical Observation: Sedation Ptosis Salivation Reddish tear Soiled perineal region + Urinalysis: Yellow colored urine pH decrease + …) of 60 mg/kg-day and an NOEL (short-term, duration: 28 days, gavage, M/F, Sprague-Dawley, Clinical Observation: Sedation Ptosis Salivation Reddish tear Soiled perineal region + Urinalysis: Yellow colored urine pH decrease + …) of 60 mg/kg-day.
For Cc1cnc[nH]1 [4-Methylimidazole], the NOEL (subchronic, diet, M/F, Fischer 344, Deaths + Body Weight Changes: decrease + Hematology: Hct decrease, Hgb decrease, Ret decrease, Plt decrease, RBC decrease + Blood Chemistry…) was under 60 mg/kg-day.
For C=Cc1ccc(OC(C)(C)C)cc1 [4-tert-Butoxystyrene], the NOEL (short-term, duration: 28 days, gavage, M/F, Deaths + Clinical Observation: Salivation + Body Weight Changes: Body weight gain decrease + Food Consumption: decrease + Urinalysis: Urine…) was 20 mg/kg-day.
For CC(C)(C)c1ccc(O)c(O)c1 [4-tert-Butylcatechol], the NOEL (subchronic, diet, M/F, Fischer 344, Body Weight Changes: decrease + Food Consumption: decrease + Hematology: Hct decrease, Hgb decrease, RBC decrease + Blood Chemistry: ALT …) was under 75 mg/kg-day.
Nc1ccc(O)c(C(=O)O)c1 [5-Aminosalicylic acid] gave an NOAEL (chronic, duration: 91 days, gavage, F, Sprague-Dawley, Deaths + Urinalysis: Volume increase, Specific gravity decrease, Occult blood Na decrease, K decrease, Cl decrease + Hematology: RBC …) of 100 mg/kg-day and an NOAEL (chronic, duration: 91 days, gavage, M, Sprague-Dawley, Deaths + Urinalysis: Volume increase, Specific gravity decrease, Occult blood Na decrease, K decrease, Cl decrease + Hematology: RBC …) of 100 mg/kg-day.
Work on CCc1ccc(C)nc1 [5-Ethyl-2-methylpyridine] yielded an NOAEL (short-term, duration: 28 days, gavage, M/F, Sprague-Dawley, Body Weight Changes: decrease + Food Consumption: decrease + Blood Chemistry: BUN increase, CRE increase, AST increase + Relative Organ …) of 30 mg/kg-day.
For CCCCCc1ccc2c(c1)C(=O)c1ccccc1C2=O [9,10-Anthracenedione, 2-pentyl-], the NOEL (short-term, duration: 28 days, gavage, F, Sprague-Dawley, Clinical Observation: Salivation (transient) + Hematology: RBC decrease, PT increase + Absolute Organ Weight: Liver increase + Relative …) was 15 mg/kg-day.
NCCCCCCCCCCC(=O)O [11-Aminoundecanoic acid] gave an NOEL (subchronic, duration: 13 weeks, diet, M/F, Fischer 344, Deaths + Histopathology: Kidney - mineralization Kidney - transitional-cell hyperplasia Kidney/renal pelvis - hyperplasia) of under 864 mg/kg-day.
Molecule CC1(C)CC(=O)CC(C)(C)N1[O] [(2,2,6,6-Tetramethyl-4-oxopiperidin-1-yl)oxidanyl] has an NOEL (short-term, duration: 28 days, gavage, M/F, Clinical Observation: Salivation + Hematology: Trend of Anemia + Absolute Organ Weight: Spleen increase, Liver increase + Histopathology: …) of 40 mg/kg-day.
BrC=Cc1ccccc1 [(2-Bromovinyl)benzene] gave an NOEL (short-term, duration: 28 days, gavage, M/F, CD(SD), Deaths + Clinical Observation: Salivation + Urinalysis: Volume increase, Osmotic pressure decrease, Small epidermal cell + Blood Chemistry: …) of 30 mg/kg-day.
Molecule C[C@H](CCc1ccccc1)NC[C@H](O)c1ccc(O)c(C(N)=O)c1.Cl [(R,R)-Dilevalol hydrochloride] has an NOEL (subchronic, duration: 90 days, gavage, M/F, Sprague-Dawley, Clinical Observation: Salivation + Body Weight Changes: body weight gain decrease + Urinalysis: Volume increase, Specific gravity decrease…) of 60 mg/kg-day.
Work on CC(=O)N(C)c1ccccc1 [Acetamide, N-methyl-N-phenyl-] yielded an NOEL (short-term, duration: 28 days, gavage, M/F, Sprague-Dawley, Deaths + Clinical Observation: Clonic convulsion Cyanosis Salivation Rearing decrease + Body Weight Changes: decrease + Food Consumption: …) of under 20 mg/kg-day.
Molecule C=CCOC(C)=O [Allyl acetate] has an NOEL (subchronic, gavage, M/F, Fischer 344, Deaths + Body Weight Changes: decrease + Hematology: Hgb decrease, Plt increase, WBC increase + Blood Chemistry: TP decrease, Alb decrease, …) of under 6 mg/kg-day.
O=C1c2ccccc2C(=O)c2ccccc21 [Anthraquinone] gave an NOAEL [1] of under 200 mg/kg-day and an NOEL [1] of under 200 mg/kg-day.
Molecule COC(=O)C1=C(C)NC(C)=C(C(=O)OCC(C)=O)C1c1ccccc1[N+](=O)[O-] (stereo not drawn) [Aranidipine] has an NOEL (chronic, duration: 91 days, gavage, M/F, Wistar, Deaths + Clinical Observation: Prone position.0 (Dead animal) Hypothermia.0 (Dead animal) Rough respiration Locomotor activity decrease …) of 3 mg/kg-day.
